One assay has as its system pluripotent stem cell H9. The experiment in a line: Neural induction of H9 cells, marker gene mRNA by RNA-seq. It is filed as cell-based, human. The following applies: H9, increasing concentrations, day 7 and day 14, P < 0.05 t-test. On the procedure: (§1) The induction medium comprises Dulbecco's Modified Eagle Medium (DMEM), Minimum Essential Medium Non-Essential Amino Acids (MEM NEAA, Cat. No. 11140076, Thermo Fisher), 4-Hydroxy-TEMPO (50 µM), D(+)-galactose (12.5 µg/mL), vitamin E (1 µg/mL), vitamin B12 (1.2 µM), vitamin C (64 mg/L), progesterone (6.3 ng/mL), 1,4-butanediamine (23 µg/mL), luteolin (60 µM), sodium chloride (0.5 g/L), […] (13.6 µg/L), insulin (22 µg/mL), recombinant human transferrin (100 ng/mL), and the BMPR1B inhibitor of the present invention (induction medium A uses BMPR1B inhibitor II-1; induction medium B uses BMPR1B inhibitor II-13).
(§2) Commercial human pluripotent stem cell lines H1, H9, and induced pluripotent stem cells (iPSCs) were used. The iPSCs were prepared according to the "reprogramming medium for the culture of reprogrammed iPSCs" using CD34+ cells (CN109628383A, Example 2). T25 culture flasks were coated with Matrigel (STEMCELL Technologies) and incubated at 37°C for at least one hour. Cells were seeded at 1 × 10^6 per T25 flask for expansion and passaging.
(§3) 6-well plates were coated with 50 µg/mL poly-L-lysine (SIGMA, Cat. No. P6407) and incubated at 37°C for at least 3 hours, followed by coating with 5 µg/mL laminin (SIGMA ALDRICH, Cat. No. 12020) and further incubation at 37°C for at least 3 hours. […]

Another assay deals with T1, BMPR2 (Homo sapiens, UniProt Q13873).
T1 sequence (Q13873 27-1038): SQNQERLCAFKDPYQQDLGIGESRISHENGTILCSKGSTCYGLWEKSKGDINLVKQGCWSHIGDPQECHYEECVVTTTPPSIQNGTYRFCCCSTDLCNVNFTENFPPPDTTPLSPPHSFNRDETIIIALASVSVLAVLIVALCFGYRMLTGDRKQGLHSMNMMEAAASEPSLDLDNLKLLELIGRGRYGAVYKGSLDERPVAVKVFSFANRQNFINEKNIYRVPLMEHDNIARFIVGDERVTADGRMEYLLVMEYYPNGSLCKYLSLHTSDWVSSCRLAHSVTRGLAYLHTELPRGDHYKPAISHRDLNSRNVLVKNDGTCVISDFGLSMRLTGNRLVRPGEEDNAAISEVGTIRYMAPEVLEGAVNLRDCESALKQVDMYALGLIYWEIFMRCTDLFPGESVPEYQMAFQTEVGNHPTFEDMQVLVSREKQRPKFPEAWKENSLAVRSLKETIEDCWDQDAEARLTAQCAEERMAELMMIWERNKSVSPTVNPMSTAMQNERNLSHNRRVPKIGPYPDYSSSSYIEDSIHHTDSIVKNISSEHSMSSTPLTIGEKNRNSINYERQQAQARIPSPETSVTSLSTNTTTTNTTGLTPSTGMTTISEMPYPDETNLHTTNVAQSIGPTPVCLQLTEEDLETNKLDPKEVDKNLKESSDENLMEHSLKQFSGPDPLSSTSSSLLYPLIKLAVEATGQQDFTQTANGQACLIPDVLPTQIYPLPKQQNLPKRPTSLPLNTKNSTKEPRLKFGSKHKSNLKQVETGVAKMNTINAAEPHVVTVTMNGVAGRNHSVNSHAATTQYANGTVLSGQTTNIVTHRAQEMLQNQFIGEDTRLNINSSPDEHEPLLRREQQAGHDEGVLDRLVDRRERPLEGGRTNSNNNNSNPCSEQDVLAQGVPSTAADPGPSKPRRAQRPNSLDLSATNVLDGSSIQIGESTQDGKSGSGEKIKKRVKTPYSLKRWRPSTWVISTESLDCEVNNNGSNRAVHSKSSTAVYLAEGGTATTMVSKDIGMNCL
The experiment in a line: Kinase activity assay (HTRF or ADP-Glo). It is filed as biochemical. On the procedure: (§4) A total of 330 kinase candidates (15-50 nM, 2.5 µL) were mixed with compound II-1 (2.5 mM, 25 nL, prepared in DMSO) and incubated at 25 °C for 10 minutes. Then, a mixture of kinase peptide substrate (0.2 mg/mL; supplier: GenScript) and ATP (10-60 µM; supplier: Promega; product number: V915B) was added (total 2.5 µL, prepared in assay buffer), and the reaction was carried out at 25 °C for 60-120 minutes. Finally, the reaction products were quantified using HTRF1 or ADP-Glo2 methods. During the kinase activity assay, the consumption of each substrate was kept below 10%, and each kinase assay was performed in duplicate.
Background: TR-FRET usually uses a lanthanide donor and a delayed reading to cut background.

In a further assay the target is T2, TGFBR1 (Homo sapiens, UniProt P36897).
T2 sequence (P36897 34-503): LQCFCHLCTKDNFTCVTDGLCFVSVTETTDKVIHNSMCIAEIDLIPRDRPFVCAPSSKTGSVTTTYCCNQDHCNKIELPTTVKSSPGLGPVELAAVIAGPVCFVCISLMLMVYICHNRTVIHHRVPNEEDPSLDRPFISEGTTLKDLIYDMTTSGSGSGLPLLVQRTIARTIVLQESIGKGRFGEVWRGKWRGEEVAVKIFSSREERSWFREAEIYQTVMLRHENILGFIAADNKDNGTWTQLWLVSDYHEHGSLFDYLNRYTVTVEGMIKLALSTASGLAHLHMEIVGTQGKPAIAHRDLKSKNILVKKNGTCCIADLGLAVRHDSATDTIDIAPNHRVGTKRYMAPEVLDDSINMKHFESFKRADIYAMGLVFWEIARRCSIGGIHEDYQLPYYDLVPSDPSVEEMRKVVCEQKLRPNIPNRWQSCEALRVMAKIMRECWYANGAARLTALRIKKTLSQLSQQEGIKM
The experiment in a line: Kinase activity assay (HTRF or ADP-Glo). It is filed as biochemical. The method, then: as §4

In the next assay the test system is SMAD2/3. The experiment in a line: Western blot of TGF signaling pathway in H1 cells. Format: cell-based, human. The following applies: 6 µL of 30 µM compound in 2 mL, within 24 hours of treatment, Figure 3. The method, then: (§5) The inhibitory effect of the pyrazolecarbonyl piperazinone compounds on the BMP signaling pathway was further validated by Western blot analysis. Commercial human pluripotent stem cell line H1 was seeded in a 6-well plate at 1.5 × 10^6 cells per well in 2 mL of culture medium. After one day of culture, the medium was replaced, and 6 µL of 30 µM pyrazolecarbonyl piperazinone compound II-1 was added. Cells were treated for 12, 24, and 36 hours, after which the cells were harvested and protein samples were prepared according to the instructions of a commercial kit (Beyotime Biotechnology; Cat. No. P0013). Western blot analysis was performed as described in the literature (H. Zhang et al., 2022; N. Zhang et al., 2021). […] Table 2. Antibody Information

For another assay, the target named is BMPR1B kinase (Homo sapiens, UniProt O00238). The experiment in a line: Kinase activity screening (330 kinases, HTRF or ADP-Glo). Format: biochemical. The following applies: compound 2.5 mM, 25 nL in DMSO added to 5 µL reaction; Figure 1A. The method, then: as §4
Sequence of BMPR1B kinase (O00238 14-502): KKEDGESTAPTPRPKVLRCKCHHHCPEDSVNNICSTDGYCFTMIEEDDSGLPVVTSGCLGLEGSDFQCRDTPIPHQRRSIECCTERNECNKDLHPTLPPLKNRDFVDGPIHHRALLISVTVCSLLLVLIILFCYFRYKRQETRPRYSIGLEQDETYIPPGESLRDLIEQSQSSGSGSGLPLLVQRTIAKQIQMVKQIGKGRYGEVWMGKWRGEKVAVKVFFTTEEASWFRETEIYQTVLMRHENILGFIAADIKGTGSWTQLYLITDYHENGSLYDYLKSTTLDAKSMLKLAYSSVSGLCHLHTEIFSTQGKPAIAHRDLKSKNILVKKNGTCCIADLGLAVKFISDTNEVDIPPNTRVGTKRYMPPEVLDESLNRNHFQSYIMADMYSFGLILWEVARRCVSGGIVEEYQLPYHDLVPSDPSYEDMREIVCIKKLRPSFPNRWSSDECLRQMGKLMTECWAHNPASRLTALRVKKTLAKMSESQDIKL
The test system of a further assay is SMAD1/5/8. The experiment in a line: Western blot of BMP signaling pathway in H1 cells. It is filed as cell-based, human. Conditions: 6 µL of 30 µM compound in 2 mL, within 24 hours of treatment, Figure 3. The method, then: as §5
(In western blotting, separated proteins are transferred to a membrane and probed.)

Assay [1] has as its system induced pluripotent stem cells (iPSCs). The experiment in a line: Neural induction of iPSCs, marker gene mRNA by RNA-seq. Format: cell-based, human. The following applies: iPSCs vs untreated control, day 7 and day 14, dose-dependent; Figure 6. On the procedure: as §1, §2
6-well plates were coated with 50 µg/mL poly-L-lysine (SIGMA, Cat. No. P6407) and incubated at 37°C for at least 3 hours, followed by coating with 5 µg/mL laminin (SIGMA ALDRICH, Cat. No. 12020) and further incubation at 37°C for at least 3 hours. When pluripotent stem cells reached 70% confluency, they were digested with EDTA at 37°C for 5 minutes, and digestion was terminated using DMEM. Cells were washed, centrifuged, and reseeded in T25 flasks at 2 × 10^5 cells per flask. Induction was carried out using the aforementioned induction media: H9 cells were induced with induction medium A, while H1 cells and iPSCs were induced with induction medium B. The medium was refreshed daily until day 14.
Samples were collected on day 7 and day 14 of induction. RNA was processed using the VAHTS Universal V8 RNA-seq Library Prep Kit for Illumina (Vazyme, NR605-01/02), and sequencing was performed on an Illumina platform. […]

Another assay concerns H1 cells. The experiment in a line: Neural induction of H1 cells, marker gene mRNA by RNA-seq. It is filed as cell-based, human. The following applies: H1, increasing concentrations, day 7 and day 14; Figure 5. The method, then:
as §1, §2, §3

[2] abbreviates: at the same concentration as the screen.
The mark [3] stands for this setting: different concentrations, up to 12.5 µM, threefold serial dilution, Figure 1B, C.

Turning to `O=C1CN(C(=O)c2n[nH]c3c2CCC3)[C@H]2CCCC[C@@H]2N1` [II-1, (4aS,8aS)-4-(1,4,5,6-tetrahydrocyclopenta[c]pyrazole-3-carbonyl)octahydroquinoxalin-2(1H)-one], in the assay on pluripotent stem cell H9, the “neural progenitor marker PAX6 expression” value is recorded as “corresponding increase” and the “pluripotency marker NANOG expression” value is recorded as “dose-dependent decrease”. In addition, the “inhibition of kinase activity of BMPR2” value against BMPR2 (setting [2]) was “did not inhibit”. The “inhibition of BMPR2 kinase” value against BMPR2 (setting [3]) was “no inhibition”. Besides, the “inhibition of kinase activity of TGFBR1” value on TGFBR1 (setting [2]) is “did not inhibit”. Besides, the “inhibition of TGFBR1 kinase” value at TGFBR1 (setting [3]) is reported as “no inhibition”. The “phosphorylation of SMAD2/3” value in the assay on SMAD2/3 is listed as “did not inhibit”. Further, the “inhibitory activity against BMPR1B kinase” value at BMPR1B kinase is “significant inhibitory activity”. In addition, the “phosphorylation levels of SMAD1/5/8” value in the assay on SMAD1/5/8 is given as “significantly suppressed”.

With `O=C1CN(C(=O)c2n[nH]c3ccccc23)[C@H]2CCCC[C@@H]2N1` [II-13, (4aS,8aS)-4-(1H-indazole-3-carbonyl)octahydroquinoxalin-2(1H)-one], in assay [1], the “neural differentiation marker VIM expression” value was “significantly increased expression”, the “neural progenitor marker Sox1 expression” value is reported as “significantly increased expression” and the “neural progenitor marker Sox5 expression” value is “significantly increased expression”. Also, in the assay with H1 cells, the “glial progenitor marker gene Sox9 expression” value is listed as “dose-dependent response” and the “neural marker gene MAP2 expression” value was “dose-dependent response”.

(Values after patent EP4717691A1, “USE OF BMPR1B INHIBITOR IN INDUCED DEVELOPMENT, AND INDUCTION CULTURE MEDIUM” (Iregene Therapeutics Co., Ltd, priority 2023, dated 2024).)
